The values that follow come from patent US12275685B2, “Oligo-benzamide analogs and their use in cancer treatment” (Board of Regents, The University of Texas System, priority 2018, dated 2025).

Data set [1] deals with HMEC cells. In words: ER stress induction in HMEC cells. It counts as cell-based, human. The settings on record: normal HMEC cells. From the text:
The basal level of expression of endoplasmic reticulum stress and unfolded protein response correlates with TK41 activity (FIG. 28). Modulation of the level of these stress proteins affects the activity of TK41. Thus, the basal level of expression of endoplasmic reticulum stress and unfolded protein response proteins may serve as a biomarker to predict response to TK41. […] Without wishing to be bound by any particular theory, the mechanism of action of TK41 may operate comprise targeting either ER or TLX and inducing endoplasmic reticulum stress, subsequent apoptosis, and blocking autophagic fusion (FIG. 30).
ERX-41 induces endoplasmic reticulum stress in TNBC. To understand the mechanism of action of ERX-41 in TNBC, the inventors performed unbiased RNA sequencing studies in three TNBC (SUM-159, MDA-MB-231, and BT549) and normal HMEC cell lines (FIGS. 36A-C). […] Heatmaps show the induction of ER stress and UPR genes in these three TNBC cell lines (FIG. 36E). Evaluation of ER stress induction was then performed with ultrastructural studies using electron microscopy (EM) studies.

Data set [2] relates to tumor growth. In words: Animal studies with TK41. It is filed as in vivo. The method, then: FIGS. 4A-4C show the effect of TK41 on estrogen receptor-positive (ER+ve) tumor growth. ZR75 (ER+ve; n=18) xenografts were established in nude mice and treated with either vehicle (circle markers) or 10 mg/kg/day TK41 (square markers) administered as an oral gavage in Captisol®. Comparison of mice body weights is shown in bar graphs (FIG. 4C). *p<0.05; **** p<0.001.
FIGS. 5A-5C show the effect of TK41 on triple negative breast cancer xenograft tumors. MDA-MB-231 (TNBC; n=10) xenografts were established in nude mice and treated with either vehicle (circle markers) or 10 mg/kg/day TK41 (square markers) administered as an oral gavage in Captisol®. Comparison of mice body weights is shown in bar graphs (FIG. 5A). Photographs of individual tumors at necropsy supports the effect of TK41 on TNBC. *p<0.05; **** p<0.001.
TNBC is difficult to be treated and currently there are no good drugs available in the market.

The subject of data set [3] is primary TNBC tumors. The data set is described as follows: Ex vivo patient derived explant (PDE) cultures of TNBC. It counts as cell-based, human. The method, then:
FIGS. 38A-E: LIPA is a viable molecular target in TNBC. (FIG. 38A) Kaplan-Meier curves show the correlation between expression levels of LAL with survival outcomes using a TCGA dataset with numerical tabulation below. (FIGS. 38B-D) Following surgical extirpation, primary TNBC tumors were cultured ex vivo either with vehicle or 1 μM ERX-41, as shown by the schematic (FIG. 38B). The effect on proliferation index (ki67) (FIG. 38C) and apoptosis markers (cleaved caspase 3) (FIG. 38D) is graphed. Representative immunohistochemical images of the effect of ERX-41 on ki67, cleaved caspase 3 and UPR genes shown (FIG. 38E).
ERX-41 has activity on human TNBC tumors. To ascertain that ERX-41 would have activity against primary TNBC tumors, the inventors leveraged their prior significant experience with the ex vivo patient derived explant (PDE) cultures […]. The PDE cultures, maintains the native tissue architecture and better recapitulates the heterogeneity of human TNBC in a laboratory setting.

The subject of data set [4] is xenografts of SUM-159 with LIPA KO. The data set is described as follows: SUM-159 LIPA KO xenografts. It counts as in vivo, SCID mice. Conditions: 10 mg/kg daily. The text has this: FIGS. 37A-J: The molecular target of ERX-41 in TNBC is LIPA. […] (FIG. 37B) Knockout clones of LIPA, ACACA, TMEM208, SOAT1 and ARID1A were generated in MDA-MB-231 cells and evaluated for response to ERX-41 using doseresponse curves using CellTiter-Glo assays in vitro. (FIGS. 37C-D) Effect of knockout of LIPA in SUM-159 (FIG. 37C) and MDA-MB436 (FIG. 37D) on dose response curve to ERX-41 using CellTiter-Glo assays in vitro. (FIGS. 37E-F) Dose response curves of SUM-159 parental cells and clones with LIPA KO to thapsigargin (FIG. 37E) and paclitaxel (FIG. 37F). (FIGS. 37G-H) Live cell imaging studies with SYTOX Green to examine ability of 1 μM ERX-41 to induce cell death in parental SUM-159 and SUM-159 clones with LIPA KO, with quantitation (FIG. 37G) and time-lapsed photomicrographs at 0 h and 30 h ((FIG. 37H). (FIGS. 37I-J) SCID mice were implanted with either parental SUM-159 or SUM-159 clones with LIPA KO (n=6, each group) and tumors were allowed to establish (150 mm^3). Following daily intraperitoneal administration of 10 mg/kg ERX-41, tumor sizes were measured and graphed (FIG. 37I), along with mice body weights (FIG. 37J). *p<0.05. **p<0.01; ***p<0.001.
The molecular target of ERX-41 in TNBC is LIPA. […] Knockout clones of LIPA, SLC5A3, SMAP2, TMEM208, SOAT1 and ARID1A were generated in multiple TNBC cells and evaluated for response to ERX-41.

Consider `CC(C)COc1cc(C(=O)Nc2ccc(C(=O)N[C@H]3CC[C@H](C)CC3)cc2OCC(C)C)ccc1NC(=O)c1ccc([N+](=O)[O-])c(OCCO)c1` [TK41], for which the “induction of endoplasmic reticulum stress in HMEC” value in data set [1] is “does not induce endoplasmic reticulum stress”. For the same compound, in data set [1] (listed as ERX-41), the “induction of endoplasmic reticulum stress in HMEC” value was “unable to induce ER stress”. For the same compound, in data set [2] (animal studies), the “side effects or toxicity” value is on record as “no apparent side effects or toxicity” and the tumor growth inhibition entry is “outstanding tumor growth inhibition”. The oral availability entry in data set [2] (mouse, in vivo, po) was “orally available”. For the same compound, in data set [3] (1 μM ex vivo), the “apoptosis (cleaved caspase 3 staining)” value is “increased apoptosis” and the “proliferation (ki67 staining)” value is “decreased proliferation”. Also, in data set [3] (within 24 h after treatment), the “UPR pathway markers by immunohistochemistry” value is “enhanced pPERK, CHOP (protein product of DDIT3 gene) and peiF2a staining”. In addition, the “response of SUM-159 LIPA KO xenografts” value in data set [4] is recorded as “did not respond”.
